Laboratory results published in ChEMBL document CHEMBL2177089, “Novel tetrahydropyrido[1,2-a]isoindolone derivatives (valmerins): potent cyclin-dependent kinase/glycogen synthase kinase 3 inhibitors with antiproliferative activities and antitumor effects in human tumor xenografts” (J Med Chem, 2012).
The source made the active and inactive calls. No cut-off for these calls is given here.

How the values were obtained:
[1] = target: Glycogen synthase kinase-3 (Sus scrofa, UniProt B2LUN4+I6LNT8); assay: Inhibition of porcine brain GSK-3alpha/beta using YRRAAVPPSPSLSRHSSPHQpSEDEEE as substrate and [gamma-33P]-ATP after 30 mins by scintillation counting
[2] = Inhibition of porcine brain CK1delta/epsilon using RRKHAAIGpSAYSITA as substrate and [gamma-33P]-ATP after 30 mins by scintillation counting; parameters: species or system Sus scrofa
[3] = target: Dual specificity tyrosine-phosphorylation-regulated kinase 1A (Homo sapiens, UniProt Q13627); assay: Inhibition of human recombinant GST-fused DYRK1A expressed in Escherichia coli using KKISGRLSPIMTEQ as substrate and [gamma-33P]-ATP after 30 mins by scintillation counting
[4] = target: Cyclin-dependent kinase 5/CDK5 activator 1 (Homo sapiens, UniProt Q00535); assay: Inhibition of human recombinant CDK5/p25 using histone H1 as substrate and [gamma-33P]-ATP after 30 mins by scintillation counting; format: protein-complex assay
Sequence of Cyclin-dependent kinase 5/CDK5 activator 1 (Q00535 whole entry): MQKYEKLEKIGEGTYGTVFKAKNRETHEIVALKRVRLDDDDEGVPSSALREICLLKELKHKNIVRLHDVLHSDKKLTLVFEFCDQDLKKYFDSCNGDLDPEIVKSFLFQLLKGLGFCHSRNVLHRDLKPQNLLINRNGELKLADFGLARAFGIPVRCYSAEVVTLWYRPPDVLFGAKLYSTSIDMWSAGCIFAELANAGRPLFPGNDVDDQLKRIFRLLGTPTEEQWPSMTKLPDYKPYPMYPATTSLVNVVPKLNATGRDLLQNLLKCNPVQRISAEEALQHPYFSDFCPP
Sequence of Cyclin-dependent kinase 5/CDK5 activator 1 (Q15078 whole entry, further chain): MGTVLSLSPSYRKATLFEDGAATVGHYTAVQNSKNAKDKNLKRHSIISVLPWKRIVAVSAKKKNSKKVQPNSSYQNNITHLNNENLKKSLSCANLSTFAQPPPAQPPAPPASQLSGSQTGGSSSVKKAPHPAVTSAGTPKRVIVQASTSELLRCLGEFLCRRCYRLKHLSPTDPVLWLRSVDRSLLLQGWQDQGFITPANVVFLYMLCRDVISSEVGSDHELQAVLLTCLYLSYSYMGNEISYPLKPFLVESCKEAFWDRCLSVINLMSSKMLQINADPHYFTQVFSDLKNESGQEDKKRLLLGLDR

HCT-116 [5] = assay: Cell cycle arrest in human HCT116 cells assessed as accumulation at G1 phase at 0.6 uM after 24 hrs; format: functional, cell-based
HCT-116 [6] = assay: Antitumor activity against human HCT116 cells xenografted in nude NMRI mouse assessed as tumor reduction at 10 mg/kg, ip administered 3 times in a week for 4 weeks; format: functional; parameters: scale not given: the % may be the effect or the level left; conditions: route intraperitoneal
NCI-H727 [7] = assay: Cell cycle arrest in human NCI-H727 cells assessed as accumulation at G1 phase at 0.6 uM after 24 hrs; format: functional, cell-based
HCT-116 [8] = assay: Induction of apoptosis in human HCT116 cells assessed as activation of caspase-3 at 0.6 uM after 24 hrs; format: functional, cell-based
Huh-7 [9] = assay: Cell cycle arrest in human HuH7 cells assessed as accumulation at G1 phase at 0.6 uM after 24 hrs; format: functional, cell-based
Mus musculus [10] = assay: Toxicity in NMRI mouse assessed as mortality at 1 to 10 mg/kg, ip qd for 2 weeks; format: organism-based; parameters: dose 1-10 mg/kg, route intraperitoneal; conditions: in vivo, 336 h
Caco-2 [11] = assay: Cell cycle arrest in human Caco2 cells assessed as accumulation at G1 phase at 0.6 uM after 24 hrs; format: functional, cell-based
PC-3 [12] = assay: Cell cycle arrest in human PC3 cells assessed as accumulation at G1 phase at 0.6 uM after 24 hrs; format: functional, cell-based
[13] = target: Cyclin-dependent kinase 1 (Homo sapiens, UniProt P06493); assay: Inhibition of CDK1
Sequence of Cyclin-dependent kinase 1 (P06493 whole entry): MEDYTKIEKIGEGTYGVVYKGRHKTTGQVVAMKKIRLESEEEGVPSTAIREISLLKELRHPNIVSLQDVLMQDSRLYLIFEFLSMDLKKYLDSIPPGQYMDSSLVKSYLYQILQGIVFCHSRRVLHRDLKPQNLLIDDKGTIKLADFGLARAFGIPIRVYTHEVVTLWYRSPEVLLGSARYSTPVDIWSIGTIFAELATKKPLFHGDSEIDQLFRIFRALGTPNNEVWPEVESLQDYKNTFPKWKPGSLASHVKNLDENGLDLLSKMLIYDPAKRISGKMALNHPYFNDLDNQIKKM

HCT-116 [14] = assay: Antitumor activity against human HCT116 cells xenografted in nude NMRI mouse assessed as tumor reduction at 10 mg/kg, ip administered 3 times in a week for 4 weeks by whole-body bioluminescent imaging; format: functional; parameters: scale not given: the % may be the effect or the level left; conditions: route intraperitoneal
Mus musculus [15] = assay: Toxicity in NMRI mouse assessed as weight loss at 1 to 10 mg/kg, ip qd for 2 weeks; format: organism-based; parameters: dose 1-10 mg/kg, route intraperitoneal; conditions: in vivo, 336 h
Mus musculus [16] = assay: Toxicity in NMRI mouse assessed as blood formulation at 1 to 10 mg/kg, ip qd for 2 weeks; format: organism-based; parameters: dose 1-10 mg/kg, route intraperitoneal; conditions: in vivo, 336 h
MDA-MB-231 [17] = assay: Cell cycle arrest in human MDA-MB-231 cells assessed as accumulation at G1 phase at 0.6 uM after 24 hrs; format: functional, cell-based
Mus musculus [18] = assay: Toxicity in NMRI mouse assessed as macroscopic examination of organs at 1 to 10 mg/kg, ip qd for 2 weeks; format: organism-based; parameters: dose 1-10 mg/kg, route intraperitoneal; conditions: in vivo, 336 h
Mus musculus [19] = assay: Toxicity in NMRI mouse assessed as food consumption at 1 to 10 mg/kg, ip qd for 2 weeks; format: organism-based; parameters: dose 1-10 mg/kg, route intraperitoneal; conditions: in vivo, 336 h
PC-3 [20] = assay: Cell cycle arrest in human PC3 cells assessed as accumulation at G1 phase at 1 uM after 24 hrs; format: functional, cell-based
HCT-116 [21] = assay: Induction of apoptosis in human HCT116 cells assessed as activation of caspase-3 at 1 uM after 24 hrs; format: functional, cell-based
Huh-7 [22] = assay: Cell cycle arrest in human HuH7 cells assessed as accumulation at G1 phase at 1 uM after 24 hrs; format: functional, cell-based
HCT-116 [23] = assay: Cell cycle arrest in human HCT116 cells assessed as accumulation at G1 phase at 1 uM after 24 hrs; format: functional, cell-based
MDA-MB-231 [24] = assay: Cell cycle arrest in human MDA-MB-231 cells assessed as accumulation at G1 phase at 1 uM after 24 hrs; format: functional, cell-based
Caco-2 [25] = assay: Cell cycle arrest in human Caco2 cells assessed as accumulation at G1 phase at 1 uM after 24 hrs; format: functional, cell-based
NCI-H727 [26] = assay: Cell cycle arrest in human NCI-H727 cells assessed as accumulation at G1 phase at 1 uM after 24 hrs; format: functional, cell-based
Caco-2 [27] = assay: cells; conditions: Homo sapiens, Caco-2, 48 h
Description: Cytotoxicity against human Caco2 cells after 48 hrs

[28] = Cytotoxicity against human skin fibroblasts cells after 48 hrs; conditions: Fibroblast
NCI-H727 [29] = assay: cells; conditions: Homo sapiens, NCI-H727, 48 h
Description: Cytotoxicity against human NCI-H727 cells after 48 hrs

PC-3 [30] = assay: cells; conditions: Homo sapiens, PC-3, 48 h
Description: Cytotoxicity against human PC3 cells after 48 hrs

HCT-116 [31] = assay: cells; conditions: Homo sapiens, HCT-116, 48 h
Description: Cytotoxicity against human HCT116 cells after 48 hrs

MDA-MB-231 [32] = assay: cells; conditions: Homo sapiens, MDA-MB-231, 48 h
Description: Cytotoxicity against human MDA-MB-231 cells after 48 hrs

Huh-7 [33] = assay: cells; conditions: Homo sapiens, Huh-7, 48 h
Description: Cytotoxicity against human HuH7 cells after 48 hrs

SMILES: Cc1cc(NC(=O)Nc2cccc3c2C2CCCCN2C3=O)no1 (stereo not given)
- IC50 [1]: 330 nM

SMILES: O=C(Nc1cccc(N2CCCCC2)n1)Nc1cccc2c1C1CCCCN1C2=O (stereo not given)
- IC50 [2]: > 10000 nM
- IC50 [3]: > 10000 nM
- IC50 [4]: > 10000 nM
- IC50 [1]: 360 nM

SMILES: O=C(Nc1ccc(O)cn1)Nc1cccc2c1C1CCCCN1C2=O (stereo not given)
- IC50 [2]: ≥ 10000 nM
- IC50 [3]: > 10000 nM
- IC50 [4]: 1300 nM
- IC50 [1]: 4000 nM

SMILES: O=C(Nc1ccncn1)Nc1cccc2c1C1CCCCN1C2=O (stereo not given)
- IC50 [3]: > 10000 nM
- IC50 [1]: 380 nM

SMILES: O=C(Nc1ccccn1)Nc1cccc2c1C1CCCCN1C2=O (stereo not given)
- Activity (HCT-116 [5]): Active
- Activity (HCT-116 [6]): 45.3%
- Activity (NCI-H727 [7]): Active
- Activity (HCT-116 [8]): Active
- Activity (Huh-7 [9]): Active
- Activity (Mus musculus [10]): Non-toxic
- Activity (Caco-2 [11]): Active
- Activity (PC-3 [12]): Active
- IC50 [13]: 75 nM
- Activity (HCT-116 [14]): 51%
- Activity (Mus musculus [15]): Non-toxic
- Activity (Mus musculus [16]): Non-toxic
- Activity (MDA-MB-231 [17]): Active
- Activity (Mus musculus [18]): Non-toxic
- Activity (Mus musculus [19]): Non-toxic

SMILES: O=C(Nc1cnccn1)Nc1cccc2c1C1CCCCN1C2=O (stereo not given)
- Activity (PC-3 [20]): Active
- Activity (HCT-116 [21]): Active
- Activity (Huh-7 [22]): Active
- Activity (HCT-116 [23]): Active
- Activity (MDA-MB-231 [24]): Active
- Activity (Caco-2 [25]): Active
- Activity (NCI-H727 [26]): Active

SMILES: O=C(Nc1csc(-c2ccncc2)n1)Nc1cccc2c1C1CCCCN1C2=O (stereo not given)
- IC50 [1]: 130 nM

SMILES: O=C(Nc1cc(O)c2ccccc2n1)Nc1cccc2c1C1CCCCN1C2=O (stereo not given)
- IC50 [3]: 5600 nM
- IC50 [4]: 10000 nM
- IC50 [1]: 1200 nM

SMILES: Cc1nc(NC(=O)Nc2cccc3c2C2CCCCN2C3=O)cs1 (stereo not given)
- IC50 [1]: 120 nM

SMILES: O=C(Nc1cccc2c1C1CCCCN1C2=O)Nc1ncccc1O (stereo not given)
- IC50 [2]: 1500 nM
- IC50 (Caco-2 [27]): 6000 nM
- IC50 [3]: 1800 nM
- IC50 [4]: 37 nM
- IC50 [28]: 3000 nM
- IC50 [1]: 51 nM
- IC50 (NCI-H727 [29]): 800 nM
- IC50 (PC-3 [30]): 400 nM
- IC50 (HCT-116 [31]): 1000 nM
- IC50 (MDA-MB-231 [32]): 2000 nM
- IC50 (Huh-7 [33]): 500 nM

SMILES: O=C(Nc1cccc(F)n1)Nc1cccc2c1C1CCCCN1C2=O (stereo not given)
- IC50 (Caco-2 [27]): 150 nM
- IC50 [4]: 90 nM
- IC50 [28]: 400 nM
- IC50 [1]: 26 nM
- IC50 (NCI-H727 [29]): 500 nM
- IC50 (PC-3 [30]): 200 nM
- IC50 (HCT-116 [31]): 90 nM
- IC50 (MDA-MB-231 [32]): 90 nM
- IC50 (Huh-7 [33]): 120 nM

SMILES: O=C(Nc1cccc2c1C1CCCCN1C2=O)Nc1ncc(F)cc1F (stereo not given)
- IC50 [2]: > 10000 nM
- IC50 [3]: > 10000 nM
- IC50 [4]: 260 nM
- IC50 [1]: 200 nM

SMILES: O=C(Nc1cc[nH]n1)Nc1cccc2c1C1CCCCN1C2=O (stereo not given)
- IC50 [1]: 470 nM

SMILES: O=C(Nc1cc2ccccc2cn1)Nc1cccc2c1C1CCCCN1C2=O (stereo not given)
- IC50 (Caco-2 [27]): 1000 nM
- IC50 [3]: > 10000 nM
- IC50 [4]: 68 nM
- IC50 [28]: 4000 nM
- IC50 [1]: 170 nM
- IC50 (NCI-H727 [29]): 3000 nM
- IC50 (PC-3 [30]): 2000 nM
- IC50 (HCT-116 [31]): 1000 nM
- IC50 (MDA-MB-231 [32]): 3000 nM
- IC50 (Huh-7 [33]): 2000 nM

SMILES: Cn1ccc(NC(=O)Nc2cccc3c2C2CCCCN2C3=O)n1 (stereo not given)
- IC50 [1]: 310 nM

SMILES: COc1cccnc1NC(=O)Nc1cccc2c1C1CCCCN1C2=O (stereo not given)
- IC50 [2]: 2600 nM
- IC50 [3]: 8100 nM
- IC50 [4]: 590 nM
- IC50 [1]: 1300 nM

SMILES: O=C(Nc1cccc2c1C1CCCCN1C2=O)NC1CCCCC1 (stereo not given)
- IC50 [3]: > 10000 nM
- IC50 [4]: > 10000 nM
- IC50 [1]: > 10000 nM

SMILES: O=C(Nc1cscn1)Nc1cccc2c1C1CCCCN1C2=O (stereo not given)
- IC50 [1]: 760 nM

SMILES: O=C(Nc1nc2ccccc2s1)Nc1cccc2c1C1CCCCN1C2=O (stereo not given)
- IC50 [3]: > 10000 nM
- IC50 [1]: 3500 nM

SMILES: O=C(Nc1ccccc1)Nc1cccc2c1C1CCCCN1C2=O (stereo not given)
- IC50 [3]: > 10000 nM
- IC50 [4]: > 10000 nM
- IC50 [1]: > 10000 nM

SMILES: O=C(Nc1cccc2c1C1CCCCN1C2=O)Nc1nc(Cl)c(Cl)c(Cl)c1Cl (stereo not given)
- IC50 [3]: > 10000 nM
- IC50 [4]: 10000 nM
- IC50 [1]: 4300 nM

SMILES: O=C(Nc1ccc2cccc(O)c2n1)Nc1cccc2c1C1CCCCN1C2=O (stereo not given)
- IC50 [3]: > 10000 nM
- IC50 [4]: 700 nM
- IC50 [1]: 150 nM

SMILES: O=C(Nc1cccc(Br)n1)Nc1cccc2c1C1CCCCN1C2=O (stereo not given)
- IC50 (Caco-2 [27]): > 25000 nM
- IC50 [28]: > 25000 nM
- IC50 [1]: 43 nM
- IC50 (NCI-H727 [29]): > 25000 nM
- IC50 (PC-3 [30]): > 25000 nM
- IC50 (HCT-116 [31]): > 25000 nM
- IC50 (MDA-MB-231 [32]): > 25000 nM
- IC50 (Huh-7 [33]): > 25000 nM

SMILES: O=C(Nc1cc(-c2ccccc2)on1)Nc1cccc2c1C1CCCCN1C2=O (stereo not given)
- IC50 [1]: 270 nM

SMILES: O=C(Nc1cc(Br)ccn1)Nc1cccc2c1C1CCCCN1C2=O (stereo not given)
- IC50 [2]: 1300 nM
- IC50 (Caco-2 [27]): 100 nM
- IC50 [3]: 7600 nM
- IC50 [4]: 25 nM
- IC50 [28]: 500 nM
- IC50 [1]: 22 nM
- IC50 (NCI-H727 [29]): 400 nM
- IC50 (PC-3 [30]): 100 nM
- IC50 (HCT-116 [31]): 100 nM
- IC50 (MDA-MB-231 [32]): 500 nM
- IC50 (Huh-7 [33]): 5000 nM

SMILES: O=C(Nc1ccc(-c2ccccc2)cn1)Nc1cccc2c1C1CCCCN1C2=O (stereo not given)
- IC50 [2]: > 10000 nM
- IC50 [3]: > 10000 nM
- IC50 [4]: 4000 nM
- IC50 [1]: 140 nM

SMILES: O=C(Nc1ccc(Br)cn1)Nc1cccc2c1C1CCCCN1C2=O (stereo not given)
- IC50 [3]: > 10000 nM
- IC50 [1]: 76 nM

SMILES: O=C(Nc1ncccn1)Nc1cccc2c1C1CCCCN1C2=O (stereo not given)
- IC50 [1]: 750 nM
